Results as given in US20140213466A1, “HIGH-THROUGHPUT ASSESSMENT METHOD FOR CONTACT HYPERSENSITIVITY” (Rutgers, The State University of New Jersey, priority 2010, published 2014).

Columns and labels:
[1] = tested on: skin tissues (Episkin / Mutz3-LC co-culture); assay: cytokine measurements (27 cytokines) of skin tissues exposed to known sensitizing chemicals, analysed by PCA; assay type: cell-based, human; conditions: several chemical concentrations, multiple replicates, comparison IE vs SA
Procedure: We have taken cytokine measurements of skin tissues that were exposed to known sensitizing chemicals. […] Principal component analysis (PCA) was used to reduce the high dimensional data into a lower dimension so that the differences in response from each chemical could be visualized.
Multiple cytokines and growth factors were assessed using the Biorad Bioplex Analyzer. 1 ml supernatants were collected for undifferentiated Mutz3 cells, Day 7 differentiated cells [Mutz3-LC] and Day 9 mature cells [mMutz3-LC]. The supernatants were tested for 27 cytokines with respective standards to detect cytokine secretion levels. Basal media samples were utilized as controls and supplementation with growth factors and cytokines viz. GMCSF, TGF-beta1, TNF-alpha, IL-6, IL1β were taken into account in the calculations. Cytokine secretion levels [pg/ml] were converted to [pg/million cells/day] by normalizing with the cell number for each cell stage of differentiation.
Different doses of SA (Salicylic Acid), IE (Isoeugenol), PPD (Paraphenylenediamine) and DNCB (DiNitroChlorobenzene) were topically applied onto a 1 cm^2 nylon disc to Episkin™ in 12 well inserts. The lower chamber consisted of Mutz3-LCs at a density of 250,000 cells/ml. Forty eight (48) hrs post sensitization, cells were resuspended in 1 ml fresh maturation media, supernatants were collected for subsequent analysis and cell count was performed. […]

[2] = stated as known property of the chemical; cited from earlier work

CC=Cc1ccc(O)c(OC)c1 [isoeugenol]
cytokine profile induced in skin tissues (PCA, FIG. 11) [1]: do not induce distinct cytokine profiles | skin sensitizer class [2]: strong sensitizer

O=C(O)c1ccccc1O
cytokine profile induced in skin tissues (PCA, FIG. 11) [1]: do not induce distinct cytokine profiles | skin sensitizer class [2]: non-sensitizing irritant
